Data published in patent US11795150B2, “Synthesis of triethylenetetramines” (Philera New Zealand Limited, priority 2004, dated 2023).

Details: 80° C. for nine days
For NCCNCCNCCN.O=C(O)/C=C/C(=O)O.O=C(O)/C=C/C(=O)O.O=C(O)/C=C/C(=O)O.O=C(O)/C=C/C(=O)O [Fumaric, triethylenetetramine tetrafumarate], the “Changes in IR, 1H-NMR and DSC after heat exposure” value (from here on “Changes in IR, 1H-NMR and DSC”) was “no changes”.
In the case of NCCNCCNCCN.O=C(O)/C=C\C(=O)O.O=C(O)/C=C\C(=O)O.O=C(O)/C=C\C(=O)O.O=C(O)/C=C\C(=O)O [Maleic, triethylenetetramine tetramaleate], the “Changes in IR, 1H-NMR and DSC” value was “no changes”.
For NCCNCCNCCN.O=C(O)CCC(=O)O.O=C(O)CCC(=O)O [Succinic, triethylenetetramine disuccinate], the “Changes in IR, 1H-NMR and DSC” value was “no changes”.
